# Results reported in patent publication US20250034147A1, “MDM2 DEGRADERS AND USES THEREOF” (Kymera Therapeutics, Inc., priority 2021, published 2025).
# Assays:
# HiBiT-tagged MDM2 = target: T1, HiBiT-tagged MDM2 (Homo sapiens, UniProt Q00987); assay: MDM2 HiBit HEK293T degradation; format: cell-based; details: HEK293T cells stably expressing C-terminally HiBiT-tagged MDM2; 4 h; read-out: MDM2 HiBit HEK293T degradation 4 h: Average external-Abs DC50
# T1 construct: expressed in transfected cells
# T1 sequence (Q00987 whole entry): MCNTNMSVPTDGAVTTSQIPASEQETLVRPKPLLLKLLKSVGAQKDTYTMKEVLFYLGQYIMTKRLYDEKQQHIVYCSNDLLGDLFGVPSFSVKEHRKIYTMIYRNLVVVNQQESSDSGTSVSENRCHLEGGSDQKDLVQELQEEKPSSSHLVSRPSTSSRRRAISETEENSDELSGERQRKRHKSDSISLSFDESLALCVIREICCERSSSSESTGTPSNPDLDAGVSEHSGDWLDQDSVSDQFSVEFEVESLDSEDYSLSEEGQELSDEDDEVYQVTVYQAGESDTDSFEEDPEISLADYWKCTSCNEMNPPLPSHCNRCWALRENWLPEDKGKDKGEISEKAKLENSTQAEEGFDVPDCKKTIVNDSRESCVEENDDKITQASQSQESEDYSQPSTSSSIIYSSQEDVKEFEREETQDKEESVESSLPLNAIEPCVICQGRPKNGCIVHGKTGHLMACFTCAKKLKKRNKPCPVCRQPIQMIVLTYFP
# Method in brief: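 Degradation was measured in HEK293T cells stably expressing C-terminally HiBiT-tagged MDM2, a pool selected with 1 microgram/ml puromycin. A MDM2 tool degrader and HaloPROTAC3 served as positive controls. Potency is reported as DC50 in letter bins.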
# RS411 cells = assay: Cell Viability CTG Assay; format: cell-based; details: Homo sapiens, RS4-11, CellTiter Glo (CTG) cell viability, read-out: Average external-IC50
# Method in brief: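 RS411 cells (1000/well) exposed 1 day at 37 °C to compound, 11-point 3-fold dilution from 10 μM top, 0.2% DMSO final. Viability read by CellTiter-Glo luminescence; IC50 reported as letter bins.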
smiles,measurement,setting,value
"COc1cc2c(cc1OC(C)C)[C@H](c1ccc(Cl)cc1)N(c1ccc(N(C)C[C@H]3CC[C@H](N4CCN(c5ccc6c(c5)n(C)c(=O)n6C5CCC(=O)NC5=O)CC4)CC3)cc1)C(=O)C2 (stereo partly drawn) [I-71, 3-[5-[4-[4-[[4-[(1S)-1-(4-chlorophenyl)-7-isopropoxy-6-methoxy-3-oxo-1,4-dihydroisoquinolin-2-yl]-N-methyl-anilino]methyl]cyclohexyl]piperazin-1-yl]-3-methyl-2-oxo-benzimidazol-1-yl]piperidine-2,6-dione]",DC50,HiBiT-tagged MDM2,< 10 nM
same,IC50,RS411 cells,< 5 nM
Cn1c(=O)n(C2CCC(=O)NC2=O)c2ccc(CCCN3CCN(C[C@H]4CC[C@H](NC(=O)[C@@H]5NC6(CCC(C)(C)CC6)[C@@]6(C(=O)Nc7cc(Cl)ccc76)[C@H]5c5cccc(Cl)c5F)CC4)CC3)cc21 (stereo partly shown) [I-72],DC50,HiBiT-tagged MDM2,< 10 nM
same,IC50,RS411 cells,< 5 nM
COc1cc2c(cc1OC(C)C)[C@H](c1ccc(Cl)cc1)N(c1ccc(N(C)C[C@H]3CC[C@H](N4CCC(c5ccc6c(c5)n(C)c(=O)n6C5CCC(=O)NC5=O)CC4)CC3)cc1)C(=O)C2 (stereo partly shown) [I-73],DC50,HiBiT-tagged MDM2,< 10 nM
same,IC50,RS411 cells,< 5 nM
COc1cc2c(cc1OC(C)C)[C@H](c1ccc(Cl)cc1)N(c1ccc(N(C)C[C@H]3CC[C@H](c4ccc5c(c4)n(C)c(=O)n5C4CCC(=O)NC4=O)CC3)cc1)C(=O)C2 (stereo partly shown) [I-74],DC50,HiBiT-tagged MDM2,< 10 nM
same,IC50,RS411 cells,5 to 50 nM
CN1[C@@H](C(=O)N[C@H]2CC[C@H](CN3CC4(CCN(CCc5ccc6c(c5)n(C)c(=O)n6C5CCC(=O)NC5=O)CC4)C3)CC2)[C@H](c2cccc(Cl)c2F)[C@]2(C(=O)Nc3cc(Cl)ccc32)C12CCCCC2 (stereo partly shown) [I-75],DC50,HiBiT-tagged MDM2,< 10 nM
same,IC50,RS411 cells,5 to 50 nM
Cn1c(=O)n(C2CCC(=O)NC2=O)c2ccc(C3CCN(C[C@@H]4CC[C@@H](NC(=O)[C@@H]5NC6(CCC(C)(C)CC6)[C@@]6(C(=O)Nc7cc(Cl)ccc76)[C@H]5c5ccnc(Cl)c5F)CO4)CC3)cc21 (stereo partly shown) [I-76],DC50,HiBiT-tagged MDM2,< 10 nM
same,IC50,RS411 cells,< 5 nM
Cn1c(=O)n(C2CCC(=O)NC2=O)c2ccc(C#CC3CCN(C[C@H]4CC[C@H](NC(=O)[C@@H]5NC6(CCC(C)(C)CC6)[C@@]6(C(=O)Nc7cc(Cl)ccc76)[C@H]5c5ccnc(Cl)c5F)CC4)C(=O)C3)cc21 (stereo partly shown) [I-77],DC50,HiBiT-tagged MDM2,< 10 nM
same,IC50,RS411 cells,5 to 50 nM
Cn1c(=O)n(C2CCC(=O)NC2=O)c2ccc(CCN3CCN(CCCN4CCC(NC(=O)[C@@H]5NC6(CCCCC6)[C@@]6(C(=O)Nc7cc(Cl)ccc76)[C@H]5c5cccc(Cl)c5F)CC4)CC3)cc21 (stereo partly shown) [I-78],DC50,HiBiT-tagged MDM2,< 10 nM
same,IC50,RS411 cells,< 5 nM
CCCc1ccc2c(c1)NC(=O)[C@]21[C@@H](c2cccc(Cl)c2F)[C@H](C(=O)N[C@H]2CC[C@H](CN3CCC(c4ccc5c(c4)n(C)c(=O)n5C4CCC(=O)NC4=O)CC3)CC2)NC12CCCCC2 (stereo partly shown) [I-79],DC50,HiBiT-tagged MDM2,< 10 nM
same,IC50,RS411 cells,> 500 nM
Cn1c(=O)n(C2CCC(=O)NC2=O)c2ccc(C3CCN(S(=O)(=O)NC(=O)[C@H]4CC[C@H](NC(=O)[C@@H]5NC6(CCCCC6)[C@@]6(C(=O)Nc7cc(Cl)ccc76)[C@H]5c5cccc(Cl)c5F)CC4)CC3)cc21 (stereo partly shown) [I-80],DC50,HiBiT-tagged MDM2,< 10 nM
same,IC50,RS411 cells,< 5 nM
Cc1ccc2c(c1)NC(=O)[C@]21[C@@H](c2cccc(Cl)c2F)[C@H](C(=O)N[C@H]2CC[C@H](C(=O)N3CCC(c4ccc5c(c4)n(C)c(=O)n5C4CCC(=O)NC4=O)CC3)CC2)NC12CCCCC2 (stereo partly shown) [I-81],DC50,HiBiT-tagged MDM2,< 10 nM
same,IC50,RS411 cells,< 5 nM
O=C(O)CCn1c(=O)n(C2CCC(=O)NC2=O)c2ccc(C3CCN(C(=O)[C@H]4CC[C@H](NC(=O)[C@@H]5NC6(CCCCC6)[C@@]6(C(=O)Nc7cc(Cl)ccc76)[C@H]5c5cccc(Cl)c5F)CC4)CC3)cc21 (stereo partly shown) [I-82],DC50,HiBiT-tagged MDM2,10 to 100 nM
same,IC50,RS411 cells,5 to 50 nM
Cn1c(=O)n(C2CCC(=O)NC2=O)c2ccc(C3CCN(C[C@H]4CC[C@H](NC(=O)[C@@H]5NC6(CCCCC6)[C@@]6(C(=O)Nc7cc(Cl)ccc76)[C@H]5c5cccc(Cl)c5F)CC4)C[C@H]3F)cc21 (stereo partly shown) [I-83],DC50,HiBiT-tagged MDM2,10 to 100 nM
same,IC50,RS411 cells,> 500 nM
Cn1c(=O)n(C2CCC(=O)NC2=O)c2ccc([C@@H]3CCN(C[C@H]4CC[C@H](NC(=O)[C@@H]5NC6(CCCCC6)[C@@]6(C(=O)Nc7cc(Cl)ccc76)[C@H]5c5cccc(Cl)c5F)CC4)C[C@@H]3F)cc21 (stereo partly shown) [I-85],DC50,HiBiT-tagged MDM2,< 10 nM
same,IC50,RS411 cells,5 to 50 nM
